From PMC8359310 (British Journal of Clinical Pharmacology, 2020)

What was measured:
[1] = Clinical DDI study: plasma pharmacokinetics of probe drugs; settings: for AUC(0-inf): AUCinf; for AUC(0-t): AUClast; for half-life: T1/2, geo‐mean (geo‐CV%)
[2] = cited from earlier work
[3] = human, in vivo, adjusted geo‐mean, probe drug + capmatinib, linear mixed effects model
[4] = human, in vivo, adjusted geo‐mean, probe drug alone, linear mixed effects model
[5] = human, in vivo, geo‐mean (geo‐CV%), probe drug alone, Day 1, plasma

For C[C@H]1O[C@@H](O[C@H]2[C@@H](O)C[C@H](O[C@H]3[C@@H](O)C[C@H](O[C@H]4CC[C@@]5(C)[C@H](CC[C@@H]6[C@@H]5C[C@@H](O)[C@]5(C)[C@@H](C7=CC(=O)OC7)CC[C@]65O)C4)O[C@@H]3C)O[C@@H]2C)C[C@H](O)[C@@H]1O [digoxin], the “increase of AUCinf on coadministration of capmatinib” value ([1]; compared to probe drug alone) was 47%, the “increase of AUClast on coadministration of capmatinib” value ([1]; compared to probe drug alone) was 63% and the “increase of Cmax on coadministration of capmatinib” value ([1]; compared to probe drug alone) was 74%. It also gave an AUC(0-inf) [1, 3] of 32.9 ng·h/mL, an AUC(0-inf) [1, 4] of 22.4 ng·h/mL and an AUC(0-t) [1, 3] of 23.8 ng·h/mL. It also gave an AUC(0-t) [1, 4] of 14.6 ng·h/mL, an AUC(0-t) ([1]; human, in vivo, geo‐mean (geo‐CV%), probe drug + capmatinib 400 mg twice daily, Day 22, plasma) of 23.8 ng·h/mL and an AUC(0-t) [1, 5] of 14.6 ng·h/mL. The Cmax [1, 4] was 1.12 ng/mL, the Cmax [1, 5] was 1.12 ng/mL and the half-life ([1]; human, in vivo, probe drug + capmatinib 400 mg twice daily, Day 22) was 61.4 h. The half-life ([1]; human, in vivo, probe drug alone, Day 1) was 47 h, the Tmax ([1]; human, in vivo, Tmax, median (min, max), probe drug alone, Day 1) was 1.07 h and the T1/2 ([2]; healthy subjects with normal renal function) was 36 to 48 h. For the same compound, the “time of peak serum concentrations” value ([2]; oral administration) was 1 to 3 h.
